Assay results taken from US20120064056A1, “DICHLORACETATE IN COMBINATION WITH CLINICALLY HIGH LEVELS OF CARDIOPROTECTIVE OR HEMODYNAMIC DRUGS” (THE GOVERNORS OF THE UNIVERSITY OF ALBERTA TEC Edmonton, priority 2002, published 2012).
Values joined by “and” are separate entries in the source; they are usually repeats but may differ in a detail not shown here. Equal values may be shown once.

Key:
[1] = tested on: isolated rat hearts subjected to low flow demand ischemia; assay: Isolated working rat heart, low flow demand ischemia: cardiac function and efficiency; conditions: DCA 2 mM, diltiazem 0.8 μM, metoprolol 1 μM
Method: (§1) Hearts were trimmed of excess tissue, and the pulmonary artery and the opening to the left atrium were then cannulated. After 15 min of Langendorff perfusion, hearts were switched to the working mode by clamping the aortic inflow line from the Langendorff reservoir and opening the left atrial inflow line. The perfusate was delivered from an oxygenator into the left atrium at a constant preload pressure of 11 mm Hg. […] The afterload was set at a hydrostatic pressure of 80 mm Hg. […] Palmitate was bound to the albumin as described previously ([…]., et al. J Biol. Chem. 267:3825-3831 (1992)). […] For the aerobic model hearts, all tested compounds were introduced into the heart 5 minutes into the working mode following Langendorff Perfusion. Spontaneously beating hearts were used in all perfusions. Heart rate and aortic pressure were measured with a Biopac Systems Inc. blood pressure transducer connected to the aortic outflow line. Cardiac output and aortic flow were measured with Transonic […] ultrasonic flow probes in the preload and afterload lines, respectively. Coronary flow was calculated as the difference between cardiac output and aortic flow. […] Cardiac work was calculated as the product of systolic pressure and cardiac output. Cardiac efficiency was defined as a ratio of cardiac work to MVO2. […] All tested compounds were introduced into the perfusate five minutes into initiation of aerobic perfusion.

isolated rat hearts [2] = assay: Isolated working rat heart, aerobic perfusion: glycolysis and glucose oxidation; design: glycolytic rates (glycolysis) / glucose oxidation rates: unit not given here; conditions: for glucose oxidation rates / glycolytic rates (glycolysis): normal hearts, aerobic, DCA 2 mM, digoxin 3 nM, diltiazem 0.8 μM, dobutamine 1 μM, metoprolol 1 μM; for glucose oxidation rates: FIG. 1, 3, 5, 7, control 361±43; for glycolytic rates (glycolysis): FIG. 2, 4, 6, 8, control 3.430±0.604
Method: (§2) Rat hearts were cannulated for isolated working heart perfusions as described in “An imbalance between glycolysis and glucose oxidation is a possible explanation for the detrimental effects of high levels of fatty acids during aerobic reperfusion of ischemic hearts.”, (J Pharmacol Exp Ther. 264:135 (1993); herein incorporated by reference. In brief, male Sprague-Dawley rats (0.3-0.35 kg) were anesthetized with pentobarbital sodium (60 mg/kg IP) and hearts were quickly excised, the aorta was cannulated and a retrograde perfusion at 37° C. was initiated at a hydrostatic pressure of 60 mm Hg. Hearts were trimmed of excess tissue, and the pulmonary artery and the opening to the left atrium were then cannulated. After 15 min of Langendorff perfusion, hearts were switched to the working mode by clamping the aortic inflow line from the Langendorff reservoir and opening the left atrial inflow line. The perfusate was delivered from an oxygenator into the left atrium at a constant preload pressure of 11 mm Hg. Perfusate was ejected from spontaneously beating hearts into a compliance chamber (containing 1 ml of air) and into the aortic outflow line. The afterload was set at a hydrostatic pressure of 80 mm Hg. All working hearts were perfused with Krebs'-Henseleit solution containing calcium 2.5 mmol/L, glucose 5.5 mmol/L, 3% bovine serum albumin (Fraction V, Boehringer Mannheim), and with 1.2 mmol/L palmitate. Palmitate was bound to the albumin as described previously (Saddik M., et al. J Biol. Chem. 267:3825-3831 (1992)). The perfusate was recirculated, and pH was adjusted to 7.4 by bubbling with a mixture containing 95% O2 and 5% CO2. For the aerobic model hearts, all tested compounds were introduced into the heart 5 minutes into the working mode following Langendorff Perfusion.
Glycolysis and glucose oxidation were measured simultaneously by perfusing hearts with [5-^3H/U-^14C] glucose (Liu H., et al. Am J Physiol. 270:H72-H80 (1996); Taegtmeyer Het al. Am J Cardiol. 80:3A-10A (1997)). The total myocardial ^3H2O production and ^14CO2 production were determined at 10 minute intervals for the entirety of the aerobic period, 60 minutes for normal hearts and 30 minutes for the global ischemia and low flow demand ischemia models. In the global ischemia model, the total myocardial ^3H2O and ^14CO2 production were determined at 20 minute intervals for the 60 minute reperfusion period. In the low flow demand ischemia model, the total myocardial ^3H2O and ^14CO2 production were determined at 10 minute intervals for the 30 minute reperfusion period. Glucose oxidation rates were determined by quantitative measurement of ^14CO2 production as described previously (Barbour R. L., et al. Biochemistr. 1923:6503-6062 (1984)).

[3] = tested on: isolated rat hearts subjected to global ischemia; assay: Isolated working rat heart, global no flow ischemia and reperfusion: cardiac function and efficiency; conditions: post-ischemic reperfusion, DCA 2 mM, digoxin 3 nM, metoprolol 1 μM
Method: as §1, with “prior to reperfusion.” for “into initiation of aerobic perfusion.”

isolated rat hearts [4] = assay: Isolated working rat heart, aerobic perfusion: cardiac function and efficiency; design: Cardiac Work (CO · PSP): unit not given beside the values; conditions: for Aortic Outflow / Cardiac Efficiency (CW · O2^−1) / Cardiac Output / Cardiac Work (CO · PSP) / Coronary Flow / HR × PSP / Heart Rate / O2 Consumption / Peak Systolic Pressure: aerobically perfused, DCA 2 mM, diltiazem 0.8 μM, digoxin 3 nM, metoprolol 1 μM, dobutamine 1 μM; for effect on functional parameters shown in Table 2 incl. O2 consumption and cardiac efficiency, in words: compared to control
Method: as §2
Spontaneously beating hearts were used in all perfusions. Heart rate and aortic pressure were measured with a Biopac Systems Inc. blood pressure transducer connected to the aortic outflow line. Cardiac output and aortic flow were measured with Transonic T206 ultrasonic flow probes in the preload and afterload lines, respectively. Coronary flow was calculated as the difference between cardiac output and aortic flow. The O2 contents of the perfusate entering and leaving the heart were measured using YSI™ micro oxygen electrodes placed in the preload and pulmonary arterial lines, respectively. Myocardial O2 consumption (MVO2) was calculated according to the Fick principle, using coronary flow rates and the arteriovenous difference in perfusate O2 concentration. Cardiac work was calculated as the product of systolic pressure and cardiac output. Cardiac efficiency was defined as a ratio of cardiac work to MVO2.

[5] = low flow ischemia: aerobic period
[6] = low flow ischemia: ischemic period

Structure (SMILES): O=C(O)C(Cl)Cl [DCA, dichloroacetate]
- Aortic Outflow [1, 5]: 27 ± 3 mL/min
- Cardiac Output [1, 5]: 50 ± 2 mL/min
- Coronary Flow [1, 5]: 22 ± 1 mL/min
- HR × PSP [1, 5]: 30 ± 1 beats · min^−1 · mmHg · 10^−2
- Heart Rate [1, 5]: 214 ± 7 beats · min^−1
- Peak Systolic Pressure [1, 5]: 139 ± 3 mmHg
- Aortic Outflow [1, 6]: 13 ± 5 mL/min
- Cardiac Output [1, 6]: 26 ± 5 mL/min
- Coronary Flow [1, 6]: 13 ± 1 mL/min
- HR × PSP [1, 6]: 30 ± 1 beats · min^−1 · mmHg · 10^−2
- Heart Rate [1, 6]: 214 ± 7 beats · min^−1
- Peak Systolic Pressure [1, 6]: 139 ± 3 mmHg
- increase in glucose oxidation (isolated rat hearts [2]; aerobic model): over 400%
- increase in glycolysis (isolated rat hearts [2]; aerobic model): over 300%
- glucose oxidation rates (isolated rat hearts [2]): 1697±179 and 1526±79
- glycolytic rates (glycolysis) (isolated rat hearts [2]): 8.917±3.060
- Aortic Outflow [3]: 14 ± 6 mL/min
- Cardiac Output [3]: 35 ± 5 mL/min
- Coronary Flow [3]: 21 ± 1 mL/min
- HR × PSP [3]: 18 ± 2 beats · min^−1 · mmHg · 10^−2
- Heart Rate [3]: 208 ± 11 beats · min^−1
- Peak Systolic Pressure [3]: 87 ± 9 mmHg
- Aortic Outflow (isolated rat hearts [4]): 30 ± 3 mL/min
- Cardiac Efficiency (CW · O2^−1) (isolated rat hearts [4]): 1.69 ± 0.19
- Cardiac Output (isolated rat hearts [4]): 49 ± 4 mL/min
- Cardiac Work (CO · PSP) (isolated rat hearts [4]): 61 ± 5
- Coronary Flow (isolated rat hearts [4]): 20 ± 1 mL/min
- HR × PSP (isolated rat hearts [4]): 32 ± 1 beats · min^−1 · mmHg · 10^−2
- Heart Rate (isolated rat hearts [4]): 239 ± 8 beats · min^−1
- O2 Consumption (isolated rat hearts [4]): 38 ± 5 μmolO2 · g dry wt^−1 · min^−1
- Peak Systolic Pressure (isolated rat hearts [4]): 125 ± 3 mmHg
- effect on functional parameters shown in Table 2 incl. O2 consumption and cardiac efficiency, in words (isolated rat hearts [4]; normal hearts, aerobic): no effect
- effect on functional parameters shown in Table 1 (heart rate, peak systolic pressure, HR×PSP), in words (isolated rat hearts [4]; normal hearts, aerobic, compared to control (DCA and dobutamine: compared to dobutamine alone)): no significant effect

Structure (SMILES): CC(CCc1ccc(O)cc1)NCCc1ccc(O)c(O)c1 (stereo not drawn) [Dobutamine, dobutamine]
- increase in glucose metabolism (isolated rat hearts [2]; aerobic model): ~400%
- glucose oxidation rates (isolated rat hearts [2]): 1707±435
- glycolytic rates (glycolysis) (isolated rat hearts [2]): 13.365±1.981
- Aortic Outflow (isolated rat hearts [4]): 32 ± 3 mL/min
- Cardiac Efficiency (CW · O2^−1) (isolated rat hearts [4]): 1.56 ± 0.43
- Cardiac Output (isolated rat hearts [4]): 52 ± 2 mL/min
- Cardiac Work (CO · PSP) (isolated rat hearts [4]): 64 ± 5
- Coronary Flow (isolated rat hearts [4]): 20 ± 4 mL/min
- HR × PSP (isolated rat hearts [4]): 40 ± 2 beats · min^−1 · mmHg · 10^−2
- Heart Rate (isolated rat hearts [4]): 333 ± 7 beats · min^−1
- O2 Consumption (isolated rat hearts [4]): 44 ± 9 μmolO2 · g dry wt^−1 · min^−1
- Peak Systolic Pressure (isolated rat hearts [4]): 124 ± 3 mmHg
- HR × PSP (isolated rat hearts [4]; listed as dobutamine): 40±2 beats · min^−1 · mmHg · 10^−2
- Heart Rate (isolated rat hearts [4]; listed as dobutamine): 333±7 beats · min^−1
- effect on functional parameters shown in Table 2 incl. O2 consumption and cardiac efficiency, in words (isolated rat hearts [4]; normal hearts, aerobic): no significant effect
